This is an account of results in US6355628B1, “Combination therapy using pentafluorobenzenesulfonamides” (priority 1999, dated 2002).

The test system of one series is β-tubulin. Put plainly: Tubulin polymerization / binding to β-tubulin. Conditions: by covalently binding to β-tubulin. The series is classed as biochemical.
The next series has as its system various tumor cell lines. Put plainly: Growth and clonogenic potential of tumor cell lines in culture. The series is classed as cell-based.
The test system of series [1] is MX-1 human mammary tumor xenografts. Put plainly: MX-1 human mammary tumor xenografts in athymic nude mice, tumor growth. Format: in vivo. (A xenograft is tissue or cells of one species grown in another, often human tumour cells in immunodeficient mice.)
Series [2] in a line: Weight loss and mortality in MX-1 xenograft study. The series is classed as in vivo, athymic nude mice. As to conditions: efficacious dose, administered alone. On the procedure:
Its activity is not affected by the multidrug resistance (MDR) phenotype.
Administration of suboptimal doses of 3 mg/kg cisplatin i.v. bolus or 15 mg/kg/hr compound 1 i.v. infusion for 4 hours was compared with the efficacy of coadministration against MX-1 tumors.

Structures are written as SMILES.

For `COc1ccc(NS(=O)(=O)c2c(F)c(F)c(F)c(F)c2F)cc1F.[Na]` [Compound 1, 2-Fluoro-1-methoxy-4-(pentafluorophenylsulfonamido)benzene, sodium salt], the tubulin polymerization entry in the series on β-tubulin is on record as “prevents tubulin polymerization”. For the same molecule, in the series with various tumor cell lines, the “activity versus multidrug resistance (MDR) phenotype” value is on record as “not affected”; the “growth and clonogenic potential of various tumor cell lines in culture” value was “inhibits the growth and clonogenic potential”. In series [1] (30 mg/kg/hr infused i.v. for 4 hours), the “inhibiting the growth of MX-1 xenografts, single agent” value is “very effective”. In addition, the “body weight loss accompanying efficacy, single agent” value in series [2] is reported as “accompanied by body weight loss”.
`N.N.[Cl][Pt][Cl]` [Cisplatin, cis-diaminedichloroplatinum (II), reference compound]: the “efficacy against MX-1 tumor, single agent” value in series [1] (efficacious dose, not stated) was “very efficacious”. Further, the “body weight loss accompanying efficacy, single agent” value in series [2] is “accompanied by body weight loss”.
